pIC50, pKi: −log10 of the molar value. Read-outs that look alike come from different tables or passages of the source.
Legend:
[1] = test system: RT16 CHO cells (expresses only human FRα); experiment: Cell proliferation assay, RT16 CHO subline; assay type: cell-based, Chinese hamster
From the text: (§1) We used a unique panel of engineered Chinese hamster ovary (CHO) sublines derived from a transporter-null MTXRIIOua^R2-4 CHO subline (R2) and designed to individually express human FRα (RT16), FRβ (D4), RFC (PC43-10), or PCFT (R2/PCFT).[39]−[42] As the CHO sublines are isogenic and differ only in the presence or absence of the human folate transporters, differences in the extent of inhibition of cell proliferation between the cell lines upon treatment with the various compounds provide a robust readout of transport specificities.[25],[26],[29],[30],[43]
(§2) The CHO sublines were treated for 96 h with a range of drug concentrations up to 1000 nM; cell viabilities were measured with a fluorescence assay.[26] […] As a control, we used transporter-null R2 cells.[42] To extend studies to human tumor cells, we also performed experiments in RFC-, PCFT-, and FRα-expressing KB tumor cells.[44] To confirm the contribution of FR-mediated uptake to antitumor activity, for KB cells, we added 200 nM folic acid, which inhibits FR uptake by direct competition without effects on either RFC or PCFT.[25],[26],[28]−[30],[43]
(§3) The MTXRIIOua^R2-4 RFC-, PCFT-, and FRα-null Chinese hamster ovary (CHO) cell line (R2) was a gift from Dr. Wayne Flintoff (University of Western Ontario).[40],[42] Isogenic CHO cell lines were subsequently derived from R2 cells by transfection with RFC, PCFT, or FRα cDNAs to generate PC43-10 (expresses only human RFC), R2/PCFT4 (expresses only human PCFT), RT16 (expresses only human FRα), and D4 (expresses only human FRβ).[25],[26],[39]
(§4) The CHO sublines were cultured in α-minimal essential medium (α-MEM) supplemented with 100 U/mL penicillin/100 μg/mL streptomycin, 2 mM L-glutamine, and 10% bovine calf serum (Sigma-Aldrich). For the PC43-10, R2/PCFT4, RT16, and D4 sublines, 1.5 mg/mL G418 was also added. Seventy-two hours prior to in vitro proliferation assays (below), RT16 and D4 CHO cells were grown in folate-free RPMI with dialyzed fetal bovine serum (DFBS) (Invitrogen) supplemented with 100 U/mL penicillin/[…] streptomycin and 2 mM L-glutamine. FRα-expressing KB nasopharyngeal carcinoma cells were acquired from the American Type Culture Collection (Manassas, VA); cells were grown in complete folate-free RPMI 1640 supplemented with 10% fetal bovine serum, 100 U/mL penicillin/100 μg/mL streptomycin, and 2 mM L-glutamine. Cell lines were authenticated by STR analysis (Genetica DNA Laboratories, Burlington, NC) and tested for Mycoplasma by PCR (Venor GeM Mycoplasma Detection Kit, Sigma). Frozen stocks were generated from authenticated Mycoplasma-free cultures.
(§5) Cell proliferation assays used CHO and KB cells cultured in folate-free-RPMI 1640 media with 10% DFBS, 2 mM L-glutamine, and 100 U/mL penicillin/100 μg/mL streptomycin supplemented with 2 nM (KB, RT16, D4) or 25 nM (R2, PC43-10, R2/PCFT4) leucovorin.[25],[26],[30] Parallel incubations with 200 nM folic acid were performed in viability assays to confirm FR-mediated drug uptake. Cells were plated in 96-well dishes at 2500–5000 cells/well in 200 μL media and treated with a range of C1 inhibitors spanning 0 to 1 μM. Cells were treated at 37 ° C with 5% CO2, and numbers were assayed after 96 h using CellTiter-blue (Promega, Madison, WI) and a fluorescence plate reader.[25],[26]

[2] = test system: D4 CHO cells (expresses only human FRβ); experiment: Cell proliferation assay, D4 CHO subline; assay type: cell-based, Chinese hamster; settings: 96 h, 2 nM leucovorin, mean (standard error)
From the text: as §1, §2, §3, §4, §5

human GARFTase = biological target: T1, human GARFTase (Homo sapiens, UniProt P22102); experiment: In vitro GARFTase enzyme assay (THF formation from 10-CHOTHF); assay type: biochemical
T1 construct: GARFTase (formyltransferase domain; residues 808–1010); made in house; host or cells: E. coli Rosetta (DE3)pLysS
T1 sequence (P22102 808-1010): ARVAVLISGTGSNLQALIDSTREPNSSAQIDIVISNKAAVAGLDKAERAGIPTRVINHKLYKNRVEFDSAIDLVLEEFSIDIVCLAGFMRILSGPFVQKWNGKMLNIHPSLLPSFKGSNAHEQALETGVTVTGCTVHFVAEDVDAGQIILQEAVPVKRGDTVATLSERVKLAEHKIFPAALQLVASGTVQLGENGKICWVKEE
Procedure: We directly tested inhibition potencies by in vitro assays using purified GARFTase and ATIC (AICARFTase) to calculate inhibition dissociation constants (Ki’s) (Table 2).[45]
Isopropyl β-D-1-thiogalactopyranoside (500 μM) was added, and the cells were incubated at 20 °C for 16–18 h. The cultures were pelleted and resuspended in 40 mL of 25 mM Tris–HCl, pH 7.5, 300 mM NaCl, 5 mM β-mercaptoethanol (β-ME), 10 mM CaCl2, 10 mM MgCl2, 40 mg lysozyme, and 8 U DNAse I (Sigma). The cells were lysed by emulsification.
His-GARFTase was purified from the lysate by ÄKTA FPLC (GE Healthcare) with a Ni-NTA column (Qiagen, Valencia, CA).[48] The column was washed with 5 column volumes (CV) of 25 mM Tris–HCl, pH 8, 300 mM NaCl, 10% glycerol, and 5 mM β-ME. His-GARFTase was eluted with a 0 to 75% gradient of 25 mM Tris–HCl, pH 8, 300 mM NaCl, 10% glyercol, 300 mM imidazole, and 5 mM β-ME over 10 CV. Further purification involved size exclusion chromatography on a Superdex 75 16/60 (GE Healthcare) column with 25 mM Tris–HCl, pH 8, 10 mM β-ME, and 300 mM NaCl. Purified His-GARFTase was stored at 90 μM in 20% glycerol at −80 °C.
GARFTase catalytic activity was measured by monitoring THF formation from 10-CHOTHF.[32],[45],[48] […] Initial slopes were graphed against inhibitor concentrations and fit to a three-parameter nonlinear regression to calculate IC50 values for each compound (GraphPad Prism 8.0). […] Inhibition constants (Ki’s) were calculated from the IC50 values using the equation Ki = IC50/([S]/KM + 1) and the Km and substrate concentration for THF.

[3] = Homo sapiens, RT16, 96 h, 2 nM leucovorin, mean (standard error)
[4] = monoglutamyl antifolates, mean (standard error), at least three replicate assays, tested up to 150 μM, read-out: GARFTase Ki
[5] = Homo sapiens, RT16; 96 h, 2 nM leucovorin; mean (standard error)

Nc1nc2sc(CCCCc3cccc(C(=O)N[C@@H](CCC(=O)O)C(=O)O)n3)cc2c(=O)[nH]1 [Compound 3, (6-(4-(2-Amino-4-oxo-3,4-dihydrothieno[2,3-d]pyrimidin-6-yl)butyl)picolinoyl)-L-glutamic Acid]
pIC50 ([1]; 96 h, 2 nM leucovorin; mean (standard error)): 7.61
pIC50 [1, 3]: 7.60
pIC50 [2]: 7.38
pKi (human GARFTase; [4]): 4.57

Nc1nc2sc(CCCCc3ccc(C(=O)N[C@@H](CCC(=O)O)C(=O)O)nc3)cc2c(=O)[nH]1 [Compound 4, (5-(4-(2-Amino-4-oxo-3,4-dihydrothieno[2,3-d]pyrimidin-6-yl)butyl)picolinoyl)-L-glutamic Acid]
pIC50 [1, 5]: 9.03
pIC50 [2]: 7.22
pKi (human GARFTase): < 3.82

Nc1nc2sc(CCCCc3cnc(C(=O)N[C@@H](CCC(=O)O)C(=O)O)c(F)c3)cc2c(=O)[nH]1 [Compound 5, (5-(4-(2-Amino-4-oxo-3,4-dihydrothieno[2,3-d]pyrimidin-6-yl)butyl)-3-fluoropicolinoyl)-L-glutamic Acid]
pIC50 [1, 3]: 8.91
pIC50 [2]: 9.60
pKi (human GARFTase; [4]): 4.86

Nc1nc2sc(CCCc3ccc(C(=O)N[C@@H](CCC(=O)O)C(=O)O)c(F)c3)cc2c(=O)[nH]1 [Compound 6, (4-(3-(2-Amino-4-oxo-3,4-dihydrothieno[2,3-d]pyrimidin-6-yl)propyl)-2-fluorobenzoyl)-L-glutamic Acid]
pIC50 [1, 3]: 8.97
pIC50 [2]: 9.32
pKi (human GARFTase; [4]): < 3.82

Nc1nc2sc(CCCCc3ccc(C(=O)N[C@@H](CCC(=O)O)C(=O)O)c(F)c3)cc2c(=O)[nH]1 [Compound 7, (4-(4-(2-Amino-4-oxo-3,4-dihydrothieno[2,3-d]pyrimidin-6-yl)butyl)-2-fluorobenzoyl)-L-glutamic Acid]
pIC50 [1, 3]: 8.64
pIC50 [2]: 8.94
pKi (human GARFTase; [4]): < 3.82

Nc1nc2sc(CCCc3csc(C(=O)N[C@@H](CCC(=O)O)C(=O)O)c3F)cc2c(=O)[nH]1 [Compound 8, (4-(3-(2-Amino-4-oxo-3,4-dihydrothieno[2,3-d]pyrimidin-6-yl)propyl)-3-fluorothiophene-2-carbonyl)-L-glutamic Acid]
pIC50 [1, 3]: 8.71
pIC50 [2]: 9.59
pKi (human GARFTase; [4]): 5.51

Nc1nc2sc(CCCCc3csc(C(=O)N[C@@H](CCC(=O)O)C(=O)O)c3F)cc2c(=O)[nH]1 [Compound 9, (4-(4-(2-Amino-4-oxo-3,4-dihydrothieno[2,3-d]pyrimidin-6-yl)butyl)-3-fluorothiophene-2-carbonyl)-L-glutamic Acid]
pIC50 [1, 5]: 8.89
pIC50 [2]: 9.32
pKi (human GARFTase): 6.77
GARFTase potency of 9 relative to 2 (human GARFTase; ratio of Ki values): 17 fold
GARFTase potency of 9 relative to 10 (human GARFTase; ratio of Ki values): 25 fold

— PMC10186366 (ACS Pharmacology & Translational Science, 2023)
